Converted amounts (≈) assume the structure as drawn.
Tests used:
[1] = tested on: mouse L1210 leukemia cells; test: Formation of L1210 leukemia cell colonies in soft agar; assay type: cell-based; details: for IC50: Mus musculus, L1210, 168 h, read-out: Cytotoxicity (continuous incubation) IC50; for cytostatic activity compared with adriamycin: result in words, test not named
Protocol: The cytostatic activity of the compounds according to the invention has been tested using mouse L1210 leukemia cells. Use was made for this of the formation of L1210 leukemia cell colonies in soft agar. This method is used to detect the effect of the test substances on the growth behavior of the cells over several generations. In this connection, with a cell cycle time of 10 to 12 hours, about 14 consecutive generations are observed in the 7-day duration of the test. In this test, the substances having cytostatic activity according to the invention bring about a reduction, compared with an untreated control sample, in the number of colonies which is to be observed.
500 leukemia cells per plate were incubated with various concentrations of the test substance at 37° C. for 1 hour. The cells were then washed twice with McCoy 5A medium, 0.3% agar was added, and finally the mixture was poured into Petri dishes. Controls were incubated only with fresh medium. In place of the incubation for one hour, in some cases various concentrations and test substances were mixed with the upper agar layer in order in this way to achieve continuous exposure of the cells throughout the incubation time. After the agar had solidified, the plates were incubated in an incubator at 37° C. for 7 days (5% by volume CO2, 95% relative atmospheric humidity). Thereafter the number of colonies with a diameter of more than 60μ which had formed was counted. The results have been stated as the number of colonies in treated agar plates as a percentage of the untreated control. The dose-effect graph obtained in this way was used to determine the IC50 as a measure of the activity of the substance. The results for the compounds described here are compiled in Table 1, comparing with adriamycin.

[2] = Acute toxicity in NMRI mice after intravenous injection; details: mouse, in vivo, survival on day 14, Litchfield-Wilcoxon
Protocol: Details of the test method are evident from the procecdure for determining the formation of colonies given herein after. Appropriate tests on NMRI mice were carried out to determine the acute toxicity of the anthracycline derivatives according to the invention. Details of the test method are evident from the procedure for determining the acute toxicity given hereinafter.
Determination of the acute toxicity entailed intravenous injection of various doses of the test substance, disolved in 0.5 ml of physiological saline solution, in NMRI mice on day 0. Control groups received only 0.5 ml of physiological saline solution. 5 mice were used for each concentration of the test substance. The number of surviving mice was determined on day 14, and the LD50 was determined therefrom by the Litchfield-Wilcoxon method. The toxicity of the compounds described here is compiled in Table 1, comparing with adriamycin.

Structure (SMILES)	IC50 [1] [µg/mL]	LD50 at 336 h [2] [mg/kg]	cytostatic activity compared with adriamycin [1]
CC[C@@]1(O)C[C@H](O[C@H]2C[C@H](NC(=O)C(F)(F)F)[C@H](O)[C@H](C)O2)c2c(O)c3c(c(O)c2[C@H]1C(=O)OC)C(=O)c1c(O)ccc(O)c1C3=O [Compound 5, 7-O-(3'-N-trifluoroacetyl-α-L-daunosaminyl)-ε-isorhodomycinone]	0.4 (≈ 0.597 µM)	–	–
CC[C@@]1(O)C[C@H](O[C@H]2C[C@H](NC)[C@H](O)[C@H](C)O2)c2c(O)c3c(c(O)c2[C@H]1C(=O)OC)C(=O)c1c(O)ccc(O)c1C3=O [Compound 9, 7-O-(3'-N-methyl--L-daunosaminyl)-ε-isorhodomycinone]	0.028 (≈ 0.0477 µM)	–	–
CC[C@@]1(O)C[C@H](O[C@H]2C[C@H](N(C)C)[C@H](O)[C@H](C)O2)c2c(O)c3c(c(O)c2[C@H]1C(=O)OC)C(=O)c1c(O)ccc(O)c1C3=O [Compound 2, 7-O-(α-L-rhodosaminyl)-ε-isorhodomycinone]	0.035 (≈ 0.0582 µM)	50 to 100	comparable with that of adriamycin
CC[C@@]1(O)C[C@H](O[C@H]2C[C@H](N(C)C)[C@H](OC(C)=O)[C@H](C)O2)c2c(O)c3c(c(O)c2[C@H]1C(=O)OC)C(=O)c1c(O)ccc(O)c1C3=O [Compound 1, 7-O-(4'-O-acetyl--L-rhodosaminyl)-ε-isorhodomycinone]	0.028 (≈ 0.0435 µM)	89	comparable with that of adriamycin
CC[C@@]1(O)C[C@H](O[C@H]2C[C@H](NC)[C@H](OC(C)=O)[C@H](C)O2)c2c(O)c3c(c(O)c2[C@H]1C(=O)OC)C(=O)c1c(O)ccc(O)c1C3=O [Compound 8, 7-O-(4'-O-acetyl-3'-N-methyl-α-L-daunosaminyl)-ε-isorhodomycinone]	0.1 (≈ 0.159 µM)	–	–
COc1cccc2c1C(=O)c1c(O)c3c(c(O)c1C2=O)C[C@@](O)(C(=O)CO)C[C@@H]3O[C@H]1C[C@H](N)[C@H](O)[C@H](C)O1 [Adriamycin, reference compound]	0.02 (≈ 0.0368 µM)	26.5	–
